Values after ≈ are worked out from the molar mass of the structure shown. Read-outs that look alike come from different tables or passages of the source.
Assays:
E. faecalis [1] = experiment: Minimum Bactericidal Concentration (MBC) assay, E. faecalis; settings: for MBC for E. faecalis: second figure of MIC/MBC; for MBC: Enterococcus faecalis, read-out: MBC for E. faecalis
E. faecalis [2] = experiment: Minimum Inhibitory Concentration (MIC) assay, E. faecalis; assay type: cell-based, Enterococcus faecalis; settings: for MIC: read-out: MIC for E. faecalis; for Growth inhibition of the pathogen of interest compared to the compound of Example 14 in WO 2018/229141: conclusion from Table 3 (E. faecalis and MRSA)
Description: (§1) The cultures (200 μl) were incubated at 37° C. for 24 h. […] The MIC was measured in micromolar concentration, i.e. μM. Objectively, this was determined by measuring the optical density (i.e. OD) of the test cultures at 600 nm using a spectrophotometer. As used herein, OD600 stands for optical density at a wavelength of 600 nm (i.e. 600 nanometers).

MRSA [3] = experiment: Minimum Bactericidal Concentration (MBC) assay, MRSA; settings: for MBC for MRSA: Table 3; for MBC: Staphylococcus aureus, MRSA
E. faecalis OG1RF = experiment: Combined activity with gentamicin, vancomycin or ampicillin, E. faecalis OG1RF; assay type: cell-based, Enterococcus faecalis; settings: gentamicin 16 μg/ml; for E. faecalis activity, combination with gentamicin compared to gentamicin alone, compound alone and comparative example alone / E. faecalis activity, combination with gentamicin compared to the combination of the comparative example and gentamicin: subinhibitory compound 1-4 μM, OD600 24 h; for Synergistic effect when combined with gentamicin / OD600 at 24 h when combined with gentamicin: compound 1 μM; for Synergistic effect when combined with gentamicin: 24 h, n.d. = activity not observed
Description: (§2) […]. The concentrations used in the experiments with E. faecalis OG1RF were 16 μg/ml gentamicin, 1 μg/ml vancomycin or 1 μg/ml ampicillin. In experiments where combinations were tested against MRSA 1369, 0.05 μg/ml gentamicin, 1 μg/ml vancomycin or 16 μg/ml ampicillin was used.
(§3) Bacterial cultures (190 μl) at a starting OD=0.001 at OD600 were incubated together with either subinhibitory concentrations of gentamicin/vancomycin/ampicillin or compound alone, or a combination of the two. The cultures (200 μl) were incubated at 37° C. for 24 h. A control sample without compound and gentamicin/vancomycin/ampicillin but containing compound vehicle (DMSO) and gentamicin/vancomycin/ampicillin vehicle (MQ water) was performed the same way. After 24 h, the effect on bacterial growth compared to untreated control samples was determined by measuring optical density at 600 nm with a spectrophotometer.
[…]. MIC/MBC values for the compounds administered alone are also shown for comparison. Unless otherwise stated, the compound was provided in a concentration of 1 μM.

MRSA [4] = experiment: Minimum Inhibitory Concentration (MIC) assay, MRSA; assay type: cell-based, Methicillin-resistant Staphylococcus aureus; settings: 24 h, read-out: MIC for MRSA
Description: as §1

MRSA 1369 = experiment: Combined activity with gentamicin, vancomycin or ampicillin, MRSA 1369; assay type: cell-based, Methicillin-resistant Staphylococcus aureus; settings: subinhibitory compound 1-4 μM, OD600 24 h
Description: as §2, §3

[5] = Table 3, compound alone, no antibiotic, 24 h, 37° C., OD600, first figure of MIC/MBC, n.d. = activity not observed at the concentrations tested
[6] = compound alone, no antibiotic, MIC cultures plated on BHI, second figure of MIC/MBC, n.d. = activity not observed at the concentrations tested
[7] = Enterococcus faecalis, 24 h, Table 3, compound alone, no antibiotic, 24 h, 37° C., OD600, first figure of MIC/MBC, n.d. = activity not observed at the concentrations tested
[8] = Enterococcus faecalis, Table 4, compound administered alone, first figure of MIC/MBC, n.d. = activity not observed
[9] = read-out: MBC for MRSA, Table 3, compound alone, no antibiotic, MIC cultures plated on BHI, second figure of MIC/MBC, n.d. = activity not observed at the concentrations tested
[10] = Staphylococcus aureus, MRSA, Table 3, compound alone, no antibiotic, 37° C., OD600, first figure of MIC/MBC, n.d. = activity not observed at the concentrations tested

| SMILES | MIC (E. faecalis [2]; [5]) [µM] | Growth inhibition of the pathogen of interest compared to the compound of Example 14 in WO 2018/229141 (E. faecalis [2]; compound alone) | MBC for MRSA (MRSA [3]; [6]) [µM] | E. faecalis activity, combination with gentamicin compared to gentamicin alone, compound alone and comparative example alone (E. faecalis OG1RF) | MBC (E. faecalis [1]) [µM] | Synergistic effect when combined with gentamicin (E. faecalis OG1RF) | MIC (E. faecalis [2]; [7]) [µM] | MIC (E. faecalis [2]; [8]) [µM] | MBC (MRSA [3]; [9]) [µM] | OD600 at 24 h when combined with gentamicin (E. faecalis OG1RF) | E. faecalis activity, combination with gentamicin compared to the combination of the comparative example and gentamicin (E. faecalis OG1RF) | MIC (MRSA [4]; [10]) [µM] | also measured |
| --- | --- | --- | --- | --- | --- | --- | --- | --- | --- | --- | --- | --- | --- |
| O=C(O)C12C[C@@H](c3cccc(Cl)c3)C1Sc1c(C3CC3)c(Cc3cccc4ccccc34)cc(=O)n12 (stereo partly shown) [Example 11] | 4 (≈ 2.06 µg/mL) | substantially similar extent or to a higher extent | 10 | much larger extent | – | – | – | – | – | – | – | – | MBC for E. faecalis (E. faecalis [1]; Table 3, compound alone, no antibiotic, MIC cultures plated on BHI, n.d. = activity not observed at the concentrations tested): 25 µM; MIC (MRSA [4]; Table 3, compound alone, no antibiotic, 37° C., OD600, first figure of MIC/MBC, n.d. = activity not observed at the concentrations tested): 4 µM (≈ 2.06 µg/mL) |
| Cc1cccc([C@@H]2CC3(C(=O)O)C2Sc2c(C4CC4)c(Cc4cccc5ccccc45)cc(=O)n23)c1 (stereo partly shown) [Example 19A] | – | substantially similar extent or to a higher extent | – | – | 25 (≈ 12.3 µg/mL) | Yes | – | – | – | – | – | – | MIC (E. faecalis [2]; Enterococcus faecalis, 24 h): 7.5 µM (≈ 3.7 µg/mL); MIC (E. faecalis [2]; Enterococcus faecalis): 7.5 µM (≈ 3.7 µg/mL); MBC (MRSA [3]; read-out: MBC for MRSA): 10 µM (≈ 4.94 µg/mL); MIC (MRSA [4]; Staphylococcus aureus, MRSA): 5 µM (≈ 2.47 µg/mL) |
| CN(C)c1c(Cc2cccc3ccccc23)c(C2CC2)c2n(c1=O)C1(C(=O)O)C[C@@H](c3cccc(Cl)c3)C1S2 (stereo partly shown) [Example 13] | – | substantially similar extent or to a higher extent | – | much larger extent | 25 (≈ 13.9 µg/mL) | Yes | 3 (≈ 1.67 µg/mL) | 3 (≈ 1.67 µg/mL) | 4 (≈ 2.23 µg/mL) | OD600 = 0 | much larger extent | 2 (≈ 1.11 µg/mL) | – |
| O=C(O)C12C[C@@H](c3cc(Cl)cc(Cl)c3)C1Sc1c(C3CC3)c(Cc3cccc4ccccc34)cc(=O)n12 (stereo partly shown) [Example 15] | – | substantially similar extent or to a higher extent | – | much larger extent | – | Yes | 3 (≈ 1.65 µg/mL) | 3 (≈ 1.65 µg/mL) | 4 (≈ 2.19 µg/mL) | OD600 = 0 | much larger extent | 2 (≈ 1.1 µg/mL) | MRSA activity, combination with ampicillin compared to ampicillin alone or compound alone (MRSA 1369; ampicillin 16 μg/ml): much larger extent; MRSA activity, combination with vancomycin compared to vancomycin alone or compound alone (MRSA 1369; vancomycin 1 μg/ml): much larger extent |
| O=C(O)C12C[C@@H](c3cccc(Cl)c3)C1Sc1c(C3CC3)c(Cc3cccc4ccccc34)cc(=O)n12 (stereo partly shown) [Example 9] | 5 (≈ 2.57 µg/mL) | substantially similar extent or to a higher extent | 1 | – | 25 (≈ 12.9 µg/mL) | Yes | – | 5 (≈ 2.57 µg/mL) | – | OD600 = 0.1 | – | 5 (≈ 2.57 µg/mL) | MBC for E. faecalis (E. faecalis [1]; Table 4, compound administered alone, n.d. = activity not observed): 25 µM |
